Data set [1] has as its system IL-12, IL-6, IFN-γ and MCP-1. Briefly: plasma cytokine levels after i.v. injection. Format: in vivo, ICR mice. On the procedure:
As noted above, with non-lipid encapsulated oligonucleotides the backbone is traditionally modified so as to reduce molecular degradation by nucleases. However, on encapsulation, such a modification is no longer required to prevent degradation. To establish the effect of a different phosphate backbone on cytokine stimulation induced by lipid encapsulation, mice were injected with oligonucleotides having both PO and PS backbones, and cytokine stimulation was measured over a series of points in time (as shown in FIG. 6 and 7B) and over a sliding dosage scale as shown in FIG. 7A. In this experiment ICR mice were injected i.v. with a 20 mg ODN/kg dose of free PO ODN1, encapsulated PO-ODN1 and encapsulated PS-ODN1. […] Cytokine stimulation is generally indicative of a cellular immune response as is a chemokine response in MCP-1. Oligonucleotides were encapsulated in a lipid particle composed of DSPC:Chol:DODAP:PEG-CER14 in a ratio of 20:45:25:10.

Another data set has as its system B16 cells. Briefly: TRP-2 peptide vaccination, B16 pulmonary metastases. It is filed as in vivo, mice. The conditions noted are these: SC weekly ×3, then B16 cells IV. On the procedure:
TRP-2 and gp100 studies were conducted using the B16/BL6 murine melanoma model. B16 cells (1.0×105) were injected IV in a volume of […]. Typically, animals were vaccinated weekly for 2-3 injections and B16 cells were then administered 1-2 days after the final vaccination. Animals were terminated between days 14-18 post-B16 injection, lungs were removed, and metastases were counted using a stereomicroscope.
TRP-2 peptide was mixed with various adjuvant formulations and was administered SC weekly (×3), followed by an IV administration of B16 cells, which aggressively seed to the lung to form numerous micro metastases. […] CFA is a balanced Th1/Th2 and gave a modest response (mean=46), consistent with the E.G7-OVA studies.

In the next data set the test system is E.G7-OVA. The data set can be described thus: prophylactic efficacy of OVA / OVA257-264 vaccination, E.G7-OVA model. Format: in vivo, C57/BL6 mice. Further details: anti-tumor activity / antigen specific efficacy / adjuvant activity following prophylactic vaccination: dose or concentration left out as unconfirmed. The following applies: for prophylactic effect on tumor growth: OVA257-264 peptide, LNA containing ODN 30 (PO), SC for 2 weeks, FIG. 31; for anti-tumor activity: antigen alone, once weekly vaccination, 2 injections. On the procedure:
Vaccinations. B6 mice were vaccinated subcutaneously (SC) with […] per injection. Dosing schedules were either q7dx2 or q4dx4 and are indicated in the individual figure legends. CFA mixtures were very viscous and had to be given with a larger gauge syringe. For humoral studies, a prime (day 0) and boost (day 14) strategy was used and blood samples were collected at various times by tail nicking.
Efficacy studies. E.G7-OVA or EL-4 thymoma cell lines were used throughout the study. These cells were cultured in vitro according to established methods. For tumor studies, 2.5×106 E.G7-OVA cells were injected subcutaneously in […] of PBS containing 1% FCS. Tumor measurements were made by repeated perpendicular measurements of tumor dimensions and using the formula: […]
Full-length OVA and the immunodominant cytotoxic T lymphocyte (CTL) peptide epitope (OVA257-264) were used to evaluate cell mediated immune responses and the prophylactic and therapeutic efficacy of OVA vaccination against the E.G7-OVA transfected cell line, using LNA both as an adjuvant and as the basis for a cancer vaccine formulation. LNA formulations for this experiment were prepared using DSPC:Chol:DODAP:PEGCer14 at a ration of 25:45:20:10
The anti-tumor activity of OVA and OVA257-264 were examined against the murine thymoma cell line, E.G7-OVA, implanted subcutaneously (SC) in C57/BL6 mice. […] Given the activity observed with the protein or peptide alone, this dose and schedule represents a useful model to evaluate adjuvants designed to boost the immune response against OVA and/or OVA257-264.
To examine LNA formulations as adjuvants, the impact of three variables were evaluated on vaccination and efficacy in the prophylactic E.G7-OVA model: (1) the activity of free vs. encapsulated ODN 1, (2) phosphodiester (PO) vs phosphorothioate (PS) ODN, and (3) full-length OVA protein vs single-epitope peptide OVA257-264 (FIGS. 30A and B). In this set of studies, free and encapsulated ODN 1 was simply mixed with antigen and administered SC near the nape of the neck. ODN and antigen doses in these studies were […], respectively.

The mark [2] stands for this setting: encapsulated form versus free at the same dose.
Setting [3] is: TRP-2 peptide alone or mixed with free ODN or other adjuvant.

Regarding “ODN14: 5′-AACC GTT GAG GGG CAT-3′, SEQ ID NO: 14, human c-myc (AACCGTTGAGGGGCAT; tested as both phosphodiester and phosphorothioate backbone forms, lipid-encapsulated, further chemistry not given here)”, in data set [1] (setting [2]), the “increase in IFN-γ” value is 20 fold, the “increase in IL-6” value was 1000 fold and the “increase in peak plasma IL-12” value stood at 2.5 fold. Besides, in data set [1] (encapsulated in DSPC:Chol:DODAP:PEG-CER14 20:45:25:10, i.v.), the “stimulation of plasma IL-6, IL-12, IFN-γ and MCP-1” value is “increased IL-12 induction”.
As for “ODN 3: 5′-TAAGCATACGGGGTGT-3, SEQ ID NO: 3; non-CpG ODN control sequence for ODN 1 (chemistry not given here)”, the “mean number of metastases” value in the data set on B16 cells (setting [3]) came out at 83; with B16 cells (encapsulated ODN (LNA) mixed with TRP-2 peptide), 23.
Consider “ODN 29: 5′-CAACGTTATGGGGAGA-3′, SEQ ID NO: 29; non-antisense version of ODN 1 (chemistry not given here)”, for which the “efficacy of ODN sequences” value with E.G7-OVA (LNA (encapsulated) forms, FIG. 35) was “strongest responses”.
With “TRP-2 peptide: immunodominant MHC class I peptide epitope of TRP-2, VYDFFVWL [reference compound]”, in the data set on B16 cells (setting [3]), the “mean number of metastases” value came to 82.
For the substance “mOVA: acylated OVA257-264 peptide; modified peptide with stearoyl group at the N-terminus [reference compound]”, in the data set with E.G7-OVA, the “prophylactic effect on tumor growth” value was “no prophylactic effect” and the anti-tumor activity result was “no anti-tumor activity was observed”.
“pOVA: immunodominant CTL peptide epitope OVA257-264 (ESIINFEK; UniProt P01012 257-264, looked up, fragment) [reference compound]”: in the data set with E.G7-OVA, the “prophylactic effect on tumor growth” value is “no prophylactic effect” and the anti-tumor activity result is “no anti-tumor activity was observed”.

These data come from US20040013649A1, “Cancer vaccines and methods of using the same” (Inex Pharmaceuticals Corporation, priority 2002, published 2004).
